The values that follow come from patent publication US10766928B2, “Targeted conformationally-constrained kinked endosomal disrupting peptides” (priority 2012, dated 2020).

Data set [1] can be described thus: Thermodynamic solubility in PBS (pH 7.4). The format is physicochemical. From the text: Values in parentheses represent 95% confidence intervals. N.D., not determined.
Measurements represent duplicate or more replicates, with active peptides subjected to multiple replicates. ND: not determined. The peptide was non-toxic and soluble in cell culture medium at this concentration.

Data set [2] relates to endosomes of Jurkat lymphocytes. Kind of data set: Endosome disruption in Jurkat lymphocytes: release of carboxyfluorescein from disulfide probe Compound 2, flow cytometry. Conditions: for Efficacy (% of 1): % of the effect of compound 1, calculated span of dose-response curve, ± standard deviation; for Efficacy (% of 1) / Efficacy (% of max. 1): Jurkat; for Efficacy (% of max. 1): % change in cellular fluorescence relative to maximal response of Compound 1 (100%). The method, boiled down:
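Human Jurkat cells treated with compounds plus disulfide probe Compound 2 (2.5 μM) for 14 h at 37 °C. Cytoplasmic release of pH-sensitive fluorophore Compound 3 quantified by flow cytometry. IC50 by non-linear regression; efficacy as % fluorescence change relative to Compound 1 maximum (100%).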

The mark [3] stands for this setting: phosphate buffered saline, pH 7.4, Table 3, PBS pH 7.4, 24 h at 22° C., read-out: Solubility.
The mark [4] stands for this setting: read-out: Potency, Table 2, EC50 ± standard deviation, Jurkat lymphocytes, disulfide-linked fluorescent probe (2.5 μM), 14 h.
Where [5] appears, read: read-out: Toxicity, Table 3, IC50, Jurkat, 48 h at 37° C., footnote a: non-toxic and soluble in cell culture medium at this concentration.
Setting [6] is: read-out: Potency (EC50), Table 1, Jurkat lymphocytes, probe Compound 2 (2.5 μM), 14 hours, 95% confidence interval in neighbouring cell.
Where [7] appears, read: phosphate buffered saline, pH 7.4, Table 1, PBS pH 7.4, 24 hours at 22° C., ±S.D., read-out: Solubility (aq.).

The structures appear in SMILES notation. Values after ≈ are worked out from the molar mass of the structure shown. Like-named read-outs stand apart in the source and are kept apart here. Non-standard residues stand in square brackets, D forms with d. Residues, ends and D or L forms follow the SMILES beside them. *: point of attachment. Pentanoyl(5-NH-cholesteryl) = CC(C)CCC[C@@H](C)[C@H]1CC[C@H]2[C@@H]3CC=C4C[C@@H](NCCCCC(=O)*)CC[C@]4(C)[C@H]3CC[C@]12C; Palmitoyl = CCCCCCCCCCCCCCCC(=O)*; PEG3 = NCCOCCOCCOCCC(=O)O; Pra = C#CC[C@H](N)C(=O)O; Aib = CC(C)(N)C(=O)O; Ahx = NCCCCCC(=O)O; Ava = NCCCCC(=O)O; βAla = NCCC(=O)O

Consider `CC(C)[C@H](NC(=O)[C@@H](NC(=O)[C@@H]1CCCN1C(=O)[C@@H]1CCCN1C(=O)[C@H](Cc1ccc(O)cc1)NC(=O)[C@H](Cc1c[nH]c2ccccc12)NC(=O)[C@H](Cc1ccc(O)cc1)NC(=O)[C@H](Cc1c[nH]c2ccccc12)NC(=O)[C@H](C)NC(=O)[C@H](Cc1ccc(O)cc1)NC(=O)[C@H](Cc1c[nH]c2ccccc12)NC(=O)[C@H](C)NC(=O)C(C)(C)NC(=O)C(C)(C)NC(=O)C(C)(C)NC(=O)C(C)(C)N)C(C)C)C(N)=O` [Compound 81] (H-[Aib][Aib][Aib][Aib]AWYAWYWYPPVV-NH2), for which the solubility thermodynamic at 24 h in data set [1] (setting [3]) was determined as 3 ± 1 µM (≈ 5.82 µg/mL). The “Efficacy (% of 1)” value in data set [2] (Table 2, 14 h) is given as 83 ± 13%. For the same molecule, the EC50 in data set [2] (setting [4]) amounted to 9 ± 6 µM. For the same molecule, in the data set with Jurkat lymphocytes (setting [5]), the IC50 was above 8 µM.

Regarding `CC(C)[C@H](NC(=O)[C@@H](NC(=O)[C@@H]1CCCN1C(=O)[C@@H]1CCCN1C(=O)[C@H](Cc1ccc(O)cc1)NC(=O)[C@H](Cc1c[nH]c2ccccc12)NC(=O)[C@H](C)NC(=O)[C@H](Cc1c[nH]c2ccccc12)NC(=O)[C@H](Cc1c[nH]c2ccccc12)NC(=O)C(C)(C)NC(=O)C(C)(C)NC(=O)C(C)(C)NC(=O)C(C)(C)N)C(C)C)C(N)=O` [Compound 54] (H-[Aib][Aib][Aib][Aib]WWAWYPPVV-NH2), the solubility thermodynamic at 24 h in data set [1] (setting [3]) is 8 ± 1 µM (≈ 12.3 µg/mL). In data set [2] (Table 1, 14 hours), the “Efficacy (% of max. 1)” value amounted to 100%. Besides, the “Efficacy (% of 1)” value in data set [2] (Table 2, 14 h) is 101 ± 2%. Also, the EC50 in data set [2] (setting [6]) was found to be 3.8 µM; in data set [2] (setting [4]), 5.4 ± 1.6 µM. Also, the IC50 in the data set with Jurkat lymphocytes (setting [5]) was above 16 µM.

As for `CC(C)[C@H](NC(=O)[C@@H](NC(=O)[C@@H]1CCCN1C(=O)[C@@H]1CCCN1C(=O)[C@H](Cc1c[nH]c2ccccc12)NC(=O)[C@H](Cc1c[nH]c2ccccc12)NC(=O)[C@H](C)NC(=O)[C@H](Cc1c[nH]c2ccccc12)NC(=O)[C@H](Cc1ccc(O)cc1)NC(=O)C(C)(C)NC(=O)C(C)(C)NC(=O)C(C)(C)NC(=O)C(C)(C)N)C(C)C)C(N)=O` [Compound 52] (H-[Aib][Aib][Aib][Aib]YWAWWPPVV-NH2), the solubility thermodynamic at 24 h in data set [1] (setting [3]) came to 21 ± 1 µM (≈ 32.4 µg/mL). Also, in data set [2] (Table 1, 14 hours), the “Efficacy (% of max. 1)” value came to 87%. Further, the “Efficacy (% of 1)” value in data set [2] (Table 2, 14 h) is listed as 105 ± 19%. Moreover, the values for the EC50 in data set [2] (setting [6]) and in data set [2] (setting [4]) were 1.9 µM and 3.2 ± 1.4 µM, respectively. In addition, the IC50 in the data set with Jurkat lymphocytes (setting [5]) is above 16 µM.

For the molecule `C#CC[C@H](NC(=O)[C@H](CCC(=O)O)NC(=O)[C@H](CCC(=O)O)NC(=O)CCNC(=O)CCCCN[C@H]1CC[C@@]2(C)C(=CC[C@H]3[C@@H]4CC[C@H]([C@H](C)CCCC(C)C)[C@@]4(C)CC[C@@H]32)C1)C(=O)NCCOCCOCCOCCC(=O)NCCOCCOCCOCCC(=O)NC(C)(C)C(=O)NC(C)(C)C(=O)NC(C)(C)C(=O)NC(C)(C)C(=O)N[C@@H](Cc1ccc(O)cc1)C(=O)N[C@@H](Cc1ccc(O)cc1)C(=O)N[C@@H](C)C(=O)N[C@@H](Cc1ccc(O)cc1)C(=O)N[C@@H](Cc1ccc(O)cc1)C(=O)N1CCC[C@H]1C(=O)N1CCC[C@H]1C(=O)N[C@H](C(=O)N[C@H](C(N)=O)C(C)C)C(C)C` [Compound 30, R = BEEZOOUUUUYYAYYPPVV-CONH2] ({Pentanoyl(5-NH-cholesteryl)-βAla}-EE[Pra][PEG3][PEG3][Aib][Aib][Aib][Aib]YYAYYPPVV-NH2), the “Solubility (aq., μM)” value in data set [1] (Table 1, PBS pH 7.4, 24 hours at 22° C., ±S.D.) came out at 3 ± 1 µM (≈ 8.32 µg/mL). In data set [1] (setting [7]), the solubility thermodynamic at 24 h was below 5 µM. The molecule also displayed an EC50 in data set [2] (14 h) of 0.03 µM. This molecule showed an IC50 in the data set with Jurkat lymphocytes (48 h) of 2 µM.

With `CC(C)CCC[C@@H](C)[C@H]1CC[C@H]2[C@@H]3CC=C4C[C@@H](NCCCCC(=O)N[C@@H](CCC(=O)O)C(=O)N[C@@H](CCC(=O)O)C(=O)NCCCCCC(=O)NCCCCCC(=O)N[C@@H](C)C(=O)N[C@@H](C)C(=O)N[C@@H](C)C(=O)N[C@@H](Cc5c[nH]c6ccccc56)C(=O)N[C@@H](Cc5c[nH]c6ccccc56)C(=O)N[C@@H](C)C(=O)N[C@@H](Cc5ccc(O)cc5)C(=O)N[C@@H](Cc5c[nH]c6ccccc56)C(=O)N5CCC[C@H]5C(=O)N5CCC[C@H]5C(=O)N[C@H](C(=O)N[C@@H](C)C(N)=O)C(C)C)CC[C@]4(C)[C@H]3CC[C@]12C` [Compound 5, R = EEXXAAAWWAYWPPVA-CONH2] ({Pentanoyl(5-NH-cholesteryl)}-EE[Ahx][Ahx]AAAWWAYWPPVA-NH2), in data set [1] (setting [7]), the solubility thermodynamic at 24 h turned out to be 10 ± 1 µM (≈ 23.4 µg/mL). For the same molecule, the EC50 in data set [2] (14 h) amounted to 0.4 µM. The molecule also showed an IC50 with Jurkat lymphocytes (48 h) of 14 µM.

The solubility is how much of the substance goes into solution per volume. As for `CCCCCCCCCCCCCCCC(=O)NCCCCC(=O)NCCC(=O)N[C@@H](CCC(=O)O)C(=O)N[C@@H](CCC(=O)O)C(=O)NCCOCCOCCOCCC(=O)NCCOCCOCCOCCC(=O)NC(C)(C)C(=O)NC(C)(C)C(=O)NC(C)(C)C(=O)NC(C)(C)C(=O)N[C@@H](Cc1c[nH]c2ccccc12)C(=O)N[C@@H](Cc1c[nH]c2ccccc12)C(=O)N[C@@H](C)C(=O)N[C@@H](Cc1ccc(O)cc1)C(=O)N[C@@H](Cc1c[nH]c2ccccc12)C(=O)N1CCC[C@H]1C(=O)N1CCC[C@H]1C(=O)N[C@H](C(=O)N[C@@H](C)C(N)=O)C(C)C` [Compound 32, R′ - BEEOOUUUUWWAYWPPVA-CONH2] ({Palmitoyl-Ava-βAla}-EE[PEG3][PEG3][Aib][Aib][Aib][Aib]WWAYWPPVA-NH2), the “Solubility in PBS relative to Compound 26” value in data set [1] (PBS) was “sixtyfold more soluble”. Further, the solubility at 24 h in data set [1] (phosphate buffered saline, Table 1, PBS pH 7.4, 24 hours at 22° C., ±S.D., read-out: Solubility (aq.)) is 856 µM (≈ 2220 µg/mL). Further, in data set [2] (Table 1, 14 hours), the “Efficacy (% of max. 1)” value amounted to 121%. For the same molecule, the “Potency relative to Compound 26” value in data set [2] (palmitic acid derivative vs cholesterylamine) is given as “sevenfold less potent”. The EC50 in data set [2] (setting [6]) was 0.7 µM. In addition, in the data set on Jurkat lymphocytes (read-out: Toxicity (IC50), Table 1, Jurkat lymphocytes, 48 h at 37° C.), the IC50 was determined as 16 µM.

In the case of `CC(C)[C@H](NC(=O)[C@@H](NC(=O)[C@@H]1CCCN1C(=O)[C@@H]1CCCN1C(=O)[C@H](Cc1ccc(O)cc1)NC(=O)[C@H](Cc1c[nH]c2ccccc12)NC(=O)[C@H](C)NC(=O)[C@H](Cc1c[nH]c2ccccc12)NC(=O)[C@H](Cc1c[nH]c2ccccc12)NC(=O)[C@H](C)NC(=O)[C@H](Cc1c[nH]c2ccccc12)NC(=O)[C@H](Cc1c[nH]c2ccccc12)NC(=O)C(C)(C)NC(=O)C(C)(C)NC(=O)C(C)(C)NC(=O)C(C)(C)N)C(C)C)C(N)=O` [Compound 79] (H-[Aib][Aib][Aib][Aib]WWAWWAWYPPVV-NH2), the solubility thermodynamic at 24 h in data set [1] (setting [3]) worked out at 2 ± 1 µM (≈ 3.97 µg/mL). In data set [2] (Table 2, 14 h), the “Efficacy (% of 1)” value is on record as 86 ± 5%. The EC50 in data set [2] (setting [4]) came out at 0.22 ± 0.06 µM. In the data set on Jurkat lymphocytes (setting [5]), the IC50 was above 16 µM.
